{
  "source": "patent US12545906B2",
  "about": "“Methods and compositions for selection of functional aptamers” (Aummune Ltd., priority 2018, dated 2026)",
  "key": {"MCF10A cells": {"test_system": "MCF10A cells", "test": "selectivity of cell death induction, negative target cells", "assay_type": "cell-based, human", "conditions": "selectivity at the target cell level"}, "TNBC cells": {"test_system": "TNBC cells", "test": "effect of E8 on TNBC cells in mouse serum", "assay_type": "cell-based", "excerpt": "(§1) The 10 most abundant aptamer sequences are highlighted. Panel B is a representative screening of the 10 most abundant aptamers from Panel A for significant caspase-3/7 activation in comparison to vehicle (V) and random oligonucleotide (R) in TNBC9 cells. Aptamer IDs labeled 1-10 (E1, E2, . . . . E10). […] STA, staurosporine; PAC, paclitaxel; Random, random oligonucleotide.\n(See, e.g., Yamashita, M. et al. A novel method for evaluating antibody-dependent cell-mediated cytotoxicity by flow cytometry using cryopreserved human peripheral blood mononuclear cells. Sci. Rep. 6, 19772 (2016); Romano, E. et al. Ipilimumab-dependent cell-mediated cytotoxicity of regulatory T cells ex vivo by nonclassical monocytes in melanoma patients. Proc. Natl. Acad. Sci. U.S.A 112, 6140-6145 (2015); Kumar, R. et al. PD-1 blockade restores impaired function of ex vivo expanded CD8 T cells and enhances apoptosis in mismatch repair deficient EpCAMPD-L1 cancer cells. Onco. Targets. Ther. 10, 3453-3465 (2017), each of which is hereby incorporated by reference.)."}, "[1]": {"test_system": "PBMCs from healthy donors", "test": "cytokine antibody array assay on PBMCs", "assay_type": "cell-based, human", "conditions": "varying concentrations of E8", "procedure": "(§2) Varying concentrations of E8 aptamer candidate were incubated with red blood cells and, separately, with PBMCs from healthy donors to ensure E8 administration is applicable in a clinical setting. No effects of blood agglutination or red blood cell hemolysis were measured."}, "[2]": {"test_system": "tumor cells in EVOC samples from TNBC patients", "test": "human ex-vivo organ cultures (EVOC), graded pathological assessment", "assay_type": "cell-based", "conditions": "0-4 scale, 2 blinded pathologists; 20-50 μM, two doses, 5 days; EVOC from 2 patients", "procedure": "Graded pathological assessment was made on a scale of 0-4 by two blinded pathologists. White stars denote samples in which an effect reached a grade of at least 3. Rnd, random.\nThe efficacy of aptamer E8 (described in Example 10) was evaluated in human ex-vivo organ cultures (EVOC). EVOCs were freshly derived from two representative TNBC patients and were prepared by Curesponse. 250 μm wide tissue slices were plated onto a 24 well plate in culture medium at high oxygen conditions. Cancer cells of the primary tumor were kept viable for up to 14 days.\nThe E8 aptamer and other chemotherapies (palbociclib, everolimus, fulvestrant) were administered at concentrations of 20-50 μM to the EVOCs. Following day 1, sample medium was replaced and a second dose of the same concentration of therapies were administered. After 5 days, samples were fixed with 4% w/v paraformaldehyde and histological sections were prepared and stained with hematoxylin-eosin. Effects were graded by 2 blinded pathologists on a 0-4 scale."}, "[3]": {"test_system": "MDA-MB-231-derived tumors", "test": "efficacy of E8 on tumor volume in tumor-bearing mice", "assay_type": "in vivo, NOD/SCID mice", "excerpt": "White arrows point to tumor locations. […] Inset region is shown magnified on the right, white arrowhead points to tumor site. […] Asterisks denote a statistically difference with p<0.05 (n=8 mice/group). […] Panel F-G show histochemical analysis of caspase-3 activity in tumor-derived tissue sections (Panel F, vehicle-treated; Panel G, E8-treated). Panel H-I show TUNEL analysis of tumor-derived tissue sections (H, vehicle-treated; I, E8-treated).\nTo evaluate the efficacy of E8 on tumor volume, the PEGylated aptamer was injected once every 2 days during the course of an 11-day period, at a dose of 100 mg/kg (equivalent in molar terms to standard chemotherapy)."}, "TNBC9 cells": {"test_system": "TNBC9 cells", "test": "induction of caspase-3/7 activation / target killing in TNBC9 cells", "assay_type": "cell-based, human", "excerpt": "as §1\nFunctional enrichment of aptamers that mediate apoptosis of patient-derived xenograft (PDX)-derived triple negative breast cancer (TNBC) cells, termed TNBC9 (Example 8) was followed by selection of lead molecules. Based on sequencing analysis (FIG. 10, Panel A), the 10 most abundant sequences in the functionally enriched aptamer population were selected, synthesized, and folded.\nThe effectiveness of the selected candidate aptamers in target killing was measured on TNBC9 cells. Specifically, candidate aptamers were synthesized, folded, directly tested for induction of caspase-3/7 activation in TNBC9 cells."}, "red blood cells": {"test_system": "red blood cells", "test": "incubation with red blood cells: agglutination and hemolysis", "assay_type": "cell-based, human", "conditions": "varying concentrations of E8", "procedure": "as §2"}, "MDA-MB-231 cells": {"test_system": "MDA-MB-231 cells", "test": "effect of E8 on MDA-MB-231 cells", "assay_type": "cell-based"}, "[4]": {"conditions": "PEGylated aptamer, 100 mg/kg once every 2 days"}, "[5]": {"conditions": "following injection of E8 compared to the PBS control"}},
  "data": [
    {"sequence": "CGGACTCACGCAAGAGCGTTTGGCAGTGTAAAACTGTTTAACGTATCTGCTCGC (chemistry not given here) [Aptamer E8]", "values": [
      {"measurement": "cell killing, negative target cells", "setting": "MCF10A cells", "value": "but not MCF10A cells"},
      {"measurement": "function in mouse serum", "setting": "TNBC cells", "value": "retained function in mouse serum"},
      {"measurement": "cytokine release", "setting": "[1]", "value": "Only minor release of certain cytokines"},
      {"measurement": "pathological grade of effect on tumor cells", "setting": "[2]", "value": "3-4"},
      {"measurement": "TUNEL analysis (apoptotic DNA fragmentation) of tumor-derived tissue sections", "setting": "[3]; [4]", "value": "increase in cell death"},
      {"measurement": "histochemical analysis of caspase-3 activity in tumor-derived tissue sections", "setting": "[3]; [4]", "value": "significant staining"},
      {"measurement": "tumor volume change compared to vehicle-treated animals", "setting": "[3]; PEGylated aptamer, 100 mg/kg once every 2 days over 11 days", "value": "decreased significantly"},
      {"measurement": "final tumor volume on day 11", "setting": "[3]; PEGylated aptamer, 100 mg/kg once every 2 days over 11 days, vehicle 301±51", "value": "168±39", "unit": "mm^3"},
      {"measurement": "macroscopic appearance of extracted tumors", "setting": "[3]; PEGylated aptamer, 100 mg/kg once every 2 days, tumors excised day 11", "value": "macroscopic signs of tissue death"},
      {"measurement": "body weight", "setting": "[3]; [5]", "value": "No significant changes"},
      {"measurement": "physical appearance", "setting": "[3]; [5]", "value": "No significant changes"},
      {"measurement": "induction of apoptosis (caspase-3/7 activation)", "setting": "TNBC9 cells; compared to vehicle alone or random oligonucleotides", "value": "most effective of the selected aptamers at inducing apoptosis"},
      {"measurement": "level of direct target killing", "setting": "TNBC9 cells; in-vitro and ex-vivo, independent biological replicate experiments", "value": "20-40%"},
      {"measurement": "cell killing, target cells", "setting": "TNBC9 cells; selectivity at the target cell level", "value": "killing TNBC9"},
      {"measurement": "blood agglutination", "setting": "red blood cells", "value": "No effects"},
      {"measurement": "red blood cell hemolysis", "setting": "red blood cells", "value": "No effects"},
      {"measurement": "effect on MDA-MB-231 cells", "setting": "MDA-MB-231 cells", "value": "remarkable effect"}
    ]}
  ]
}
